Biological target: T1, ITK (Mus musculus, UniProt Q03526)
T1 construct: administered to mice orally; from tissue; host or cells: mouse splenocytes (spleen) after oral dosing
T1 sequence (Q03526 1-625): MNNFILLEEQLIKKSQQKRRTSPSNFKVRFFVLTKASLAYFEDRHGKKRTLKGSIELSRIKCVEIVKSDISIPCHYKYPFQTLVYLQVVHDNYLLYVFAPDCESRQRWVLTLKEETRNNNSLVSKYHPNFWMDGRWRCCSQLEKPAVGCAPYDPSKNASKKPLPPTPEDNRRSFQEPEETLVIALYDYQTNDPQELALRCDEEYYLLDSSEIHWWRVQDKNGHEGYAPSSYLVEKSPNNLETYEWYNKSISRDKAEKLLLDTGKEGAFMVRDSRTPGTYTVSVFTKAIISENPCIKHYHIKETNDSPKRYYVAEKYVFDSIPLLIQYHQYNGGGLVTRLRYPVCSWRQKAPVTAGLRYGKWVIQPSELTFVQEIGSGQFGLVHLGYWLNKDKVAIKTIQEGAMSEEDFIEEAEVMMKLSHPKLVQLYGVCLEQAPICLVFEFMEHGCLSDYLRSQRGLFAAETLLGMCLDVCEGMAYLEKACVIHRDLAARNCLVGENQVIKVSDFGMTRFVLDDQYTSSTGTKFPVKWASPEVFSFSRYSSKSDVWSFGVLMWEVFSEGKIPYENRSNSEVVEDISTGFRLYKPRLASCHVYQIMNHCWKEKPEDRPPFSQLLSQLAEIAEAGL
Test: Western Assay for ITK Degradation in Mouse Splenocytes after oral administration
Assay type: in vivo
Settings: for ITK degradation in vivo by Western blotting: mouse splenocytes, oral
Description: Compounds 30 and 31 were administered to mice orally. After 6 hours, splenocytes cells were harvested. ITK was evaluated by Western blotting. Media was removed and cell pellets were lysed in 100 μL lysis buffer (RIPA buffer (Fisher, PI89901), cOmplete Mini EDTA-free protease inhibitor (Sigma 11836170001), Protease Inhibitor Cocktail (Sigma, P2714), Phosphatase Inhibitor Cocktail 2 and 3 (Sigma, P5726 and P0044), Benzonase (Sigma, E1014)). Cells were lysed overnight at −20° C. Following thaw, cells were centrifuged for 10 min at 13000 rpm, then transferred to new tube. Protein levels were determined by BCA Assay performed according to manufacturer's protocol (EMD Millipore, cat. no. 71285-3). Samples were combined with (4×) LDS Sample Buffer and (10×) Reducing Agent and H2O to equally load 20 μg protein per lane of a 26-well NuPAGE 4-12% Bis-Tris protein gel (1.0 mm, Thermo cat. no. NP0326). Samples were separated by running gels at constant 150 V in NuPAGE MES SDS Running Buffer. Following electrophoresis, proteins were transferred to nitrocellulose membranes using an iBlot Gel Transfer Device and iBlot Gel Transfer Stacks (Thermo cat. no. IB21001 and IB301001) and transfer method P3 (20V for 7 min). Membranes were blocked for 1 hr in 5% milk solution (TBS (0.2% Tween-20)). Following blocking, membranes were incubated with primary antibody (1:1000 CST ITK (2F12) #2380) overnight at 4° C. with gentle shaking. Blots were washed 2× in TBS (0.2% Tween-20), 30 min per wash. Following washes, blots were incubated in secondary HRP-conjugated antibody (Promega anti-Mouse IgG (H+L) HRP cat. no. W4021), 1:5000 in 5% milk solution (TBS (0.2% Tween-20)), for 1 hr at room temperature with gentle shaking. Blots were washed 2× in TBS (0.2% Tween-20), 30 min per wash. Blots were incubated with 1:1 mix of ECL reagents 1 & 2 (Amersham ECL Western Blotting Detection Reagent, cat. no. RPN2106) for 2 min at room temperature. Bands were visualized using a Protein Simple imager. Blots were then re-probed with a combination of anti-actin antibody (Sigma Monoclonal Mouse Anti-β-Actin (clone AC-15), cat. no. A5441) and secondary HRP-conjugated antibody (Promega anti-Mouse IgG (H+L) HRP, cat. no. W4021) and similar steps were taken for incubation, wash, detection and visualization steps as above. The data was analyzed using Alpha View software. The densitometric reading for each sample band was normalized to that of the corresponding actin band per lane. Approximate % ITK remaining per sample was calculated as follows: […]
Once % ITK remaining has been calculated for each sample, groups are averaged together to show an means % ITK normalized to actin and relative to control.
Compounds 30 and 29 were administered to mice orally. After 6 hours or 24 hours, splenocytes cells were harvested. ITK was evaluated by Western blotting. Plasma concentrations were determined by LC/MS/MS. Plasma samples were protein precipitated by addition of 100 μl of acetonitrile containing 50 ng/ml of internal standard. The resulting mixture was vortexed and centrifuged at 4000 RPM for 5 minutes. An aliquot of the resultant supernatant (75 μl) was added to 75 μl of 0.1% formic acid in water to constitute the final sample for injection. Samples were injected on a Shimadzu Exion LC Binary Gradient AD Pump HLPC system connected to a Sciex QTRAP 6500+ mass spectrometer. Five μl of sample was injected onto a Waters Acquity UPLC BEH C18 column 130A (2.1×30 mm, […]) at 40° C. utilizing a flow rate of 700 μl/minute. Mobile Phase A was 0.1% formic acid in water and mobile phase B was 0.1% formic acid in acetonitrile. A linear gradient of 15-95% B over 1.0 minute was used. The mass spectrometer was operated in positive ion electrospray mode with multiple reaction monitoring for maximum sensitivity. Sciex Analyst software (version 1.6.3) was used for LC/MS/MS instrument control and acquisition. […]

[1] = % ITK remaining in mouse splenocytes, 90 mpk PO
[2] = % ITK remaining in mouse splenocytes, 24 h

Compound	ITK (%) 90 mpk PO, 6 h [1] [%]	other results
C[C@@H](C(=O)N(C)c1ccc2cc(-c3n[nH]c4c3C[C@@H]3C(F)(F)[C@]3(C)C4)[nH]c2c1)N1CCN(CC2CCN(c3ccc(N4CCC(=O)NC4=O)cn3)CC2)CC1 [Compound 29, (S)—N-(2-((4aS,5aR)-5,5-difluoro-5a-methyl-1,4,4a,5,5a,6-hexahydrocyclopropa[f]indazol-3-yl)-1H-indol-6-yl)-2-(4-((1-(5-(2,4-dioxotetrahydropyrimidin-1(2H)-yl)pyridin-2-yl)piperidin-4-yl)methyl)piperazin-1-yl)-N-methylpropanamide]	14	ITK degradation in vivo by Western blotting (6 hours): degraded ITK in vivo; ITK degradation in vivo by Western blotting (24 hours): degraded ITK
CN(C(=O)CCC1CCN(c2ccc(C3CCC(=O)NC3=O)cn2)CC1)c1ccc2cc(-c3n[nH]c4c3C[C@@H]3C(F)(F)[C@]3(C)C4)[nH]c2c1 (stereo partly drawn) [Compound 4, N-(2-((4aS,5aR)-5,5-difluoro-5a-methyl-1,4,4a,5,5a,6-hexahydrocyclopropa[f]indazol-3-yl)-1H-indol-6-yl)-3-(1-(5-(2,6-dioxopiperidin-3-yl)pyridin-2-yl)piperidin-4-yl)-N-methylpropanamide]	76	–
C[C@@H](C(=O)N(C)c1ccc2cc(-c3n[nH]c4c3CCC(C)(C)C4)[nH]c2c1)N1CCN(CC2CCN(c3ccc(N4CCC(=O)NC4=O)cn3)CC2)CC1 [Compound 31, (S)—N-(2-(6,6-dimethyl-4,5,6,7-tetrahydro-1H-indazol-3-yl)-1H-indol-6-yl)-2-(4-((1-(5-(2,4-dioxotetrahydropyrimidin-1(2H)-yl)pyridin-2-yl)piperidin-4-yl)methyl)piperazin-1-yl)-N-methylpropanamide]	116	ITK degradation in vivo by Western blotting (6 hours): degraded ITK in vivo; ITK degradation in vivo by Western blotting (24 hours): degraded ITK in vivo
CN(C(=O)CC1CCN(CC2CCN(c3ccc(C4CCC(=O)NC4=O)cn3)CC2)CC1)c1ccc2cc(-c3n[nH]c4c3C[C@@H]3C(F)(F)[C@]3(C)C4)[nH]c2c1 (stereo partly drawn) [Compound 6, N-(2-((4aS,5aR)-5,5-difluoro-5a-methyl-1,4,4a,5,5a,6-hexahydrocyclopropa[f]indazol-3-yl)-1H-indol-6-yl)-2-(1-((1-(5-(2,6-dioxopiperidin-3-yl)pyridin-2-yl)piperidin-4-yl)methyl)piperidin-4-yl)-N-methylacetamide]	92	–
CC1(C)CCc2c(-c3cc4ccc(N5CCC6(CCN(CC7CCN(c8ccc(C9CCC(=O)NC9=O)cn8)CC7)CC6)C5=O)cc4[nH]3)n[nH]c2C1 (centres unmarked) [Compound 24, 3-(6-(4-((2-(2-(6,6-dimethyl-4,5,6,7-tetrahydro-1H-indazol-3-yl)-1H-indol-6-yl)-1-oxo-2,8-diazaspiro[4.5]decan-8-yl)methyl)piperidin-1-yl)pyridin-3-yl)piperidine-2,6-dione]	45	–
CC1(C)CCc2c(-c3cc4ccc(C(=O)N5CCC(CN6CCN(c7ccc(C8CCC(=O)NC8=O)cc7)CC6)CC5)cc4[nH]3)n[nH]c2C1 (centres unmarked) [Compound 37, 3-(4-(4-((1-(2-(6,6-dimethyl-4,5,6,7-tetrahydro-1H-indazol-3-yl)-1H-indole-6-carbonyl)piperidin-4-yl)methyl)piperazin-1-yl)phenyl)piperidine-2,6-dione]	–	ITK (%) 60 mpk PO, 24 h [2]: >100%
C[C@@]12Cc3[nH]nc(-c4cc5ccc(N6CCC7(CCN(CC8CCN(c9ccc(C%10CCC(=O)NC%10=O)cn9)CC8)CC7)C6=O)cc5[nH]4)c3C[C@@H]1C2(F)F (stereo partly drawn) [Compound 28, 3-(6-(4-((2-(2-((4aS,5aR)-5,5-difluoro-5a-methyl-1,4,4a,5,5a,6-hexahydrocyclopropa[f]indazol-3-yl)-1H-indol-6-yl)-1-oxo-2,8-diazaspiro[4.5]decan-8-yl)methyl)piperidin-1-yl)pyridin-3-yl)piperidine-2,6-dione]	8	–
CC1(C)CCc2c(-c3cc4ccc(C(=O)N5CCC(CN6CCN(c7ccc(C8CCC(=O)NC8=O)nc7)CC6)CC5)cc4[nH]3)n[nH]c2C1 (centres unmarked) [Compound 35, 3-(5-(4-((1-(2-(6,6-dimethyl-4,5,6,7-tetrahydro-1H-indazol-3-yl)-1H-indole-6-carbonyl)piperidin-4-yl)methyl)piperazin-1-yl)pyridin-2-yl)piperidine-2,6-dione]	–	ITK (%) 60 mpk PO, 24 h [2]: >100%
CC1(C)CCc2c(-c3cc4ccc(C(=O)N5CCN(CC6CCN(c7ccc(C8CCC(=O)NC8=O)cc7)CC6)CC5)cc4[nH]3)n[nH]c2C1 (centres unmarked) [Compound 38, 3-(4-(4-((4-(2-(6,6-dimethyl-4,5,6,7-tetrahydro-1H-indazol-3-yl)-1H-indole-6-carbonyl)piperazin-1-yl)methyl)piperidin-1-yl)phenyl)piperidine-2,6-dione]	14	ITK (%) 90 mpk PO, 24 h (% ITK remaining in mouse splenocytes, 90 mpk PO, 24 h): 14%
CC1(C)CCc2c(-c3cc4ccc(C(=O)N5CCC(CN6CCC(c7ccc(C8CCC(=O)NC8=O)cc7)CC6)CC5)cc4[nH]3)n[nH]c2C1 (centres unmarked) [Compound 39, 3-(4-(1-((1-(2-(6,6-dimethyl-4,5,6,7-tetrahydro-1H-indazol-3-yl)-1H-indole-6-carbonyl)piperidin-4-yl)methyl)piperidin-4-yl)phenyl)piperidine-2,6-dione]	–	ITK (%) 60 mpk PO, 24 h [2]: 93%
C[C@@]12Cc3[nH]nc(C(=O)Nc4cnn(CC5CN(C(=O)C6CN(c7ccc(C8CCC(=O)NC8=O)cn7)C6)C5)c4)c3C[C@@H]1C2(F)F (stereo partly drawn) [Compound 23, (4aS,5aR)—N-(1-((1-(1-(5-(2,6-dioxopiperidin-3-yl)pyridin-2-yl)azetidine-3-carbonyl)azetidin-3-yl)methyl)-1H-pyrazol-4-yl)-5,5-difluoro-5a-methyl-1,4,4a,5,5a,6-hexahydrocyclopropa[f]indazole-3-carboxamide]	129	–
C[C@@]12Cc3[nH]nc(C(=O)Nc4cnn(CC5CN(C(=O)C6CCN(c7ccc(C8CCC(=O)NC8=O)cn7)CC6)C5)c4)c3C[C@@H]1C2(F)F (stereo partly drawn) [Compound 22, (4aS,5aR)—N-(1-((1-(1-(5-(2,6-dioxopiperidin-3-yl)pyridin-2-yl)piperidine-4-carbonyl)azetidin-3-yl)methyl)-1H-pyrazol-4-yl)-5,5-difluoro-5a-methyl-1,4,4a,5,5a,6-hexahydrocyclopropa[f]indazole-3-carboxamide]	113	–

Reference: patent publication US20230158151A1 (NURIX THERAPEUTICS, INC., priority 2021, published 2023)
